Laboratory results published in US20240358668A1, “METHODS AND CO[…] AM[…] CARD[…] USING (R)-2-AMINO-3-PH[…]” (AXSOME THERAPEUTICS, INC., priority 2021, published 2024).

System: participants with narcolepsy or OSA
Assay: 1-year OLE study: clinical laboratory assessments (total cholesterol, triglycerides, glucose), OLE baseline to week 40
Type: in vivo, human
Procedure: A 1-year open-label extension (OLE) study was performed with 374 participants to examined whether clinically significant weight loss (≥5%) in this population had favorable effects on biomarkers of cardiovascular risk compared to no such weight loss. The study measured changes in weight and BP (parent study baseline to OLE week 40) and clinical laboratory assessments (OLE baseline to week 40) in participants with narcolepsy (n=124) or OSA (n=250) who received solriamfetol at doses of 75, 150, or 300 mg/d.
We evaluated changes in weight and BP (parent study baseline to OLE week 40) and clinical laboratory assessments (OLE baseline to week 40) in participants with narcolepsy (n=124) or OSA (n=250) from the OLE study.

[1] = Weight loss <5% at Week 40, 75 mg/d
[2] = Weight loss <5% at Week 40, 150 mg/d
[3] = Weight loss <5% at Week 40, 300 mg/d
[4] = Weight loss <5% at Week 40, all doses
[5] = Weight loss ≥5% at Week 40, 75 mg/d
[6] = Weight loss ≥5% at Week 40, 150 mg/d
[7] = Weight loss ≥5% at Week 40, 300 mg/d
[8] = Weight loss ≥5% at Week 40, all doses

## NC(=O)OC[C@H](N)Cc1ccccc1 [Solriamfetol, (R)-2-amino-3-phenylpropyl carbamate]
[1]
  Glucose Change - Wk 40, Mean (SD): −0.1 (3.0) mmol/L
  Glucose Change - Wk 40, Median: 0.2 mmol/L
  Glucose category High, Week 40: 16(76.2) n (%)
  Glucose category Low, Week 40: 0 n (%)
  Glucose category Normal, Week 40: 5(23.8) n (%)
  TC Change - Wk 40, Mean (SD): −0.1 (0.7) mmol/L
  TC Change - Wk 40, Median: 0.2 mmol/L
  TG Change - Wk 40, Mean (SD): 0.2 (0.9) mmol/L
  TG Change - Wk 40, Median: -0.1 mmol/L
  Total cholesterol category High, Week 40: 8(38.1) n (%)
  Total cholesterol category Low, Week 40: 0 n (%)
  Total cholesterol category Normal, Week 40: 13(61.9) n (%)
  Triglycerides category High, Week 40: 11(52.4) n (%)
  Triglycerides category Low, Week 40: 0 n (%)
  Triglycerides category Normal, Week 40: 10(47.6) n (%)
[2]
  Glucose Change - Wk 40, Mean (SD): −0.1 (1.1) mmol/L
  Glucose Change - Wk 40, Median: -0.1 mmol/L
  Glucose category High, Week 40: 47(46.1) n (%)
  Glucose category Low, Week 40: 0 n (%)
  Glucose category Normal, Week 40: 55(53.9) n (%)
  TC Change - Wk 40, Mean (SD): 0.1 (0.7) mmol/L
  TC Change - Wk 40, Median: 0.1 mmol/L
  TG Change - Wk 40, Mean (SD): −0.1 (1.0) mmol/L
  TG Change - Wk 40, Median: -0.0 mmol/L
  Total cholesterol category High, Week 40: 46(44.2) n (%)
  Total cholesterol category Low, Week 40: 0 n (%)
  Total cholesterol category Normal, Week 40: 58(55.8) n (%)
  Triglycerides category High, Week 40: 39(37.5) n (%)
  Triglycerides category Low, Week 40: 0 n (%)
  Triglycerides category Normal, Week 40: 65(62.5) n (%)
[3]
  Glucose Change - Wk 40, Mean (SD): −0.1 (1.9) mmol/L
  Glucose Change - Wk 40, Median: 0.0 mmol/L
  Glucose category High, Week 40: 69(48.9) n (%)
  Glucose category Low, Week 40: 0 n (%)
  Glucose category Normal, Week 40: 72(51.1) n (%)
  TC Change - Wk 40, Mean (SD): 0.1 (0.6) mmol/L
  TC Change - Wk 40, Median: 0.100 mmol/L
  TG Change - Wk 40, Mean (SD): 0.0 (0.7) mmol/L
  TG Change - Wk 40, Median: -0.1 mmol/L
  Total cholesterol category High, Week 40: 46(31.9) n (%)
  Total cholesterol category Low, Week 40: 0 n (%)
  Total cholesterol category Normal, Week 40: 98(68.1) n (%)
  Triglycerides category High, Week 40: 50(34.7) n (%)
  Triglycerides category Low, Week 40: 0 n (%)
  Triglycerides category Normal, Week 40: 94(65.3) n (%)
[4]
  Glucose Change - Wk 40, Mean (SD): −0.1 (1.8) mmol/L
  Glucose Change - Wk 40, Median: -0.0 mmol/L
  Glucose category High, Week 40: 132(50.0) n (%)
  Glucose category Low, Week 40: 0 n (%)
  Glucose category Normal, Week 40: 132(50.0) n (%)
  TC Change - Wk 40, Mean (SD): 0.1 (0.6) mmol/L
  TC Change - Wk 40, Median: 0.100 mmol/L
  TG Change - Wk 40, Mean (SD): −0.0 (0.9) mmol/L
  TG Change - Wk 40, Median: -0.0 mmol/L
  Total cholesterol category High, Week 40: 100(37.2) n (%)
  Total cholesterol category Low, Week 40: 0 n (%)
  Total cholesterol category Normal, Week 40: 169(62.8) n (%)
  Triglycerides category High, Week 40: 100(37.2) n (%)
  Triglycerides category Low, Week 40: 0 n (%)
  Triglycerides category Normal, Week 40: 169(62.8) n (%)
[5]
  Glucose Change - Wk 40, Mean (SD): -0.5 mmol/L
  Glucose Change - Wk 40, Median: -0.5 mmol/L
  Glucose category High, Week 40: 1(100) n (%)
  Glucose category Low, Week 40: 0 n (%)
  Glucose category Normal, Week 40: 0 n (%)
  TC Change - Wk 40, Mean (SD): 1.1 mmol/L
  TC Change - Wk 40, Median: 1.1 mmol/L
  TG Change - Wk 40, Mean (SD): 0.3 mmol/L
  TG Change - Wk 40, Median: 0.3 mmol/L
  Total cholesterol category High, Week 40: 0 n (%)
  Total cholesterol category Low, Week 40: 0 n (%)
  Total cholesterol category Normal, Week 40: 1(100) n (%)
  Triglycerides category High, Week 40: 0 n (%)
  Triglycerides category Low, Week 40: 0 n (%)
  Triglycerides category Normal, Week 40: 1(100) n (%)
[6]
  Glucose Change - Wk 40, Mean (SD): −0.2 (0.8) mmol/L
  Glucose Change - Wk 40, Median: -0.2 mmol/L
  Glucose category High, Week 40: 7(31.8) n (%)
  Glucose category Low, Week 40: 0 n (%)
  Glucose category Normal, Week 40: 15(68.2) n (%)
  TC Change - Wk 40, Mean (SD): 0.2 (0.5) mmol/L
  TC Change - Wk 40, Median: 0.2 mmol/L
  TG Change - Wk 40, Mean (SD): −0.1 (0.4) mmol/L
  TG Change - Wk 40, Median: -0.2 mmol/L
  Total cholesterol category High, Week 40: 4(18.2) n (%)
  Total cholesterol category Low, Week 40: 0 n (%)
  Total cholesterol category Normal, Week 40: 18(81.8) n (%)
  Triglycerides category High, Week 40: 6(27.3) n (%)
  Triglycerides category Low, Week 40: 0 n (%)
  Triglycerides category Normal, Week 40: 16(72.7) n (%)
[7]
  Glucose Change - Wk 40, Mean (SD): −0.2 (1.5) mmol/L
  Glucose Change - Wk 40, Median: -0.1 mmol/L
  Glucose category High, Week 40: 19(26.0) n (%)
  Glucose category Low, Week 40: 0 n (%)
  Glucose category Normal, Week 40: 54(74.0) n (%)
  TC Change - Wk 40, Mean (SD): 0.2 (0.6) mmol/L
  TC Change - Wk 40, Median: 0.2 mmol/L
  TG Change - Wk 40, Mean (SD): −0.3 (1.0) mmol/L
  TG Change - Wk 40, Median: -0.2 mmol/L
  Total cholesterol category High, Week 40: 18(24.7) n (%)
  Total cholesterol category Low, Week 40: 0 n (%)
  Total cholesterol category Normal, Week 40: 55(75.3) n (%)
  Triglycerides category High, Week 40: 15(20.5) n (%)
  Triglycerides category Low, Week 40: 0 n (%)
  Triglycerides category Normal, Week 40: 58(79.5) n (%)
[8]
  Glucose Change - Wk 40, Mean (SD): −0.2 (1.4) mmol/L
  Glucose Change - Wk 40, Median: -0.1 mmol/L
  Glucose category High, Week 40: 27(28.1) n (%)
  Glucose category Low, Week 40: 0 n (%)
  Glucose category Normal, Week 40: 69(71.9) n (%)
  TC Change - Wk 40, Mean (SD): 0.2 (0.6) mmol/L
  TC Change - Wk 40, Median: 0.2 mmol/L
  TG Change - Wk 40, Mean (SD): −0.2 (0.9) mmol/L
  TG Change - Wk 40, Median: -0.2 mmol/L
  Total cholesterol category High, Week 40: 22(22.9) n (%)
  Total cholesterol category Low, Week 40: 0 n (%)
  Total cholesterol category Normal, Week 40: 74(77.1) n (%)
  Triglycerides category High, Week 40: 21(21.9) n (%)
  Triglycerides category Low, Week 40: 0 n (%)
  Triglycerides category Normal, Week 40: 75(78.1) n (%)
Participants with weight loss, week 40 (baseline 22.3%)
  percentage of participants with high total cholesterol: 22.9%
Participants with weight loss, week 40 (baseline 26.6%)
  percentage of participants with high triglycerides: 21.9%
Participants with weight loss, week 40 (baseline 36.6%)
  percentage of participants with high serum glucose: 28.1%
Participants without weight loss, week 40 (baseline 32.7%)
  percentage of participants with high total cholesterol: 37.2%
Participants without weight loss, week 40 (baseline 37.1%)
  percentage of participants with high triglycerides: 37.2%
Participants without weight loss, week 40 (baseline 43.3%)
  percentage of participants with high serum glucose: 50%
